Measurements published in PubChem BioAssay AID504471 (NMMLSC, 2011).

Biological target: Retrograde regulation protein 3 (Saccharomyces cerevisiae (strain ATCC 204508 / S288c)) (UniProt P38165)
Assay: nuclear shift of GFP-tagged Rtg3 – imaging, fluorescence microscopy, S288c, yeast TOR pathway modulator project, SAR follow-up (AID 504471)
Details: S. cerevisiae Rtg3-GFP, nuclear translocation by microscopy; at 30 µM; active compounds read high

nuclear translocation (1=yes, 0=no)	Compound
1	CO[C@H]1C[C@@H]2CC[C@@H](C)[C@@](O)(O2)C(=O)C(=O)N2CCCC[C@H]2C(=O)O[C@H]([C@H](C)C[C@@H]2CC[C@@H](O)[C@H](OC)C2)CC(=O)[C@H](C)/C=C(\C)[C@@H](O)[C@@H](OC)C(=O)[C@H](C)C[C@H](C)/C=C/C=C/C=C/1C
1	CNc1nc(N)c([N+](=O)[O-])c(Nc2ccccc2)n1
1	CNc1nc(N)c([N+](=O)[O-])c(Nc2cccc(F)c2)n1
1	CNc1nc(N)c([N+](=O)[O-])c(Nc2cccc(Cl)c2)n1
